Where a SMILES comes first, the peptide text is derived from it. [ ]: non-standard residue; d: D form. dPhe(4-Cl) = N[C@H](Cc1ccc(Cl)cc1)C(=O)O; d2Nal = N[C@H](Cc1ccc2ccccc2c1)C(=O)O; dCit = NC(=O)NCCC[C@@H](N)C(=O)O; d3Pal = N[C@H](Cc1cccnc1)C(=O)O
Legend:
[1] = test system: pregnant mice; assay: Dam body weight and fat mass, aborted embryos, litter size, pup weight at birth; format: in vivo, mouse
Experimental: Dams were injected from E16.5 to E18.5 with either PBS (vehicle, n=8-11), AMH (n=10), AMH+GnRH antag (n=8-10). Body weight (grams: g); (FIG. 9A), subcutaneous fat mass (FIG. 9B) and perigonadal fat mass (FIG. 9C) was measured in dams at gestational day 19.5. (FIG. 9D) Dams were injected from E16.5 to E18.5 with either PBS (vehicle, n=9), AMH (n=9), AMH+GnRH antag (n=9). Dams were sacrificed one day later and the number of aborted embryos per litter was calculated. (FIGS. 9E, 9F) Dams were injected from E16.5 to E18.5 with either PBS (vehicle, n=3), AMH (n=3), AMH+GnRH antag (n=3). The number of pups per litter (FIG. 9E) and the weight of the pups at birth (FIG. 9F) was calculated for each treatment group (vehicle, n=12 pups; AMH, n=11 pups; AMH+GnRH antag, n=12 pups). Values are represented as the mean±s.e.m. […] Data were combined from three independent experiments. FIGS. 9A to 9F: left bar: vehicle; middle bar: AMH; right bar: AMH+GnRH antagonist.

[2] = Cetrorelix measurement in maternal and fetal brain (nano-HPLC-HRMS); format: in vivo, mouse; conditions: dams i.p. 0.5 mg/Kg E16.5-E18.5; brains at E19.5
Experimental: Timed-pregnant adult (3-4 months) C57BL6/J (B6) (Charles River, USA) dams were injected daily intraperitoneally (i.p.) from embryonic day (E) 16.5 to 18.5 with 200 μL of a solution containing respectively: 1) 0.01M phosphate buffered saline (PBS, pH 7.4, prenatal control-treated), 2) PBS with 0.5 mg Kg^−1 of the GnRH antagonist, cetrorelix acetate (Sigma, Cat #C5249; GnRH antag-treated). At E19.5, dams were anesthetized with ketamine/xylazine, and sacrificed by cervical dislocation. Dams' brains and fetal brains were collected, snap-frozen in liquid nitrogen and stored at −80° C. until nano-HPLC-HRMS experiments.
Murine maternal and embryo brain samples were prepared adapting the procedure described (Wang et al., 2014, Vol. 1345: 98-106). Briefly, the brains were weighted, homogenized with 1% formic acid in cold acetonitrile and incubated for 15 minutes at −20° C. After centrifugation, the supernatant was freeze-dried and reconstituted with 3% acetic acid and 1% trifluoroacetic acid (TFA). all of the solvents were from Sigma-Aldrich Merck (Milan, Italy). […]
The column was equipped with a nanoESl source and the capillary voltage was 2000 V in positive ion mode. […] High resolution spectra were acquired with a resolution of 60000 (FWHM) and the mass accuracy of recorded ions (vs. calculated) was ±5 ppm units (without internal calibration).

**Q.** Which results are given for `CC(=O)N[C@H](Cc1ccc2ccccc2c1)C(=O)N[C@H](Cc1ccc(Cl)cc1)C(=O)N[C@H](Cc1cccnc1)C(=O)N[C@@H](CO)C(=O)N[C@@H](Cc1ccc(O)cc1)C(=O)N[C@H](CCCNC(N)=O)C(=O)N[C@@H](CC(C)C)C(=O)N[C@@H](CCCNC(=N)N)C(=O)N1CCC[C@H]1C(=O)N[C@H](C)C(N)=O` [Cetrorelix acetate, Ac-D-2Nal-D-Phe(4-Cl)-D-3Pal-Ser-Tyr-D-Cit-Leu-Arg-Pro-D-Ala-NH2] (Ac-[d2Nal][dPhe(4-Cl)][d3Pal]SY[dCit]LRP[dA]-NH2)?
**A.** body weights of pups at birth ([1]; dams i.p. AMH+GnRH antag E16.5-E18.5): did not observe any changes; body weight, subcutaneous fat mass or perigonadal fat mass of dams ([1]; dams injected 3 days with AMH+GnRH antag, E19.5): did not find any changes; access to maternal and fetal brain [2]: can access the maternal as well as the fetal brain

From patent publication US12208130B2, “Treatment of women affected with polycystic ovary syndrome” (INSTITUT NATIONAL DE LA SANTE ET DE LA RECHERCHE MEDICALE …, priority 2017, dated 2025)
